Earlier results as cited in US7919499B2, “Naltrexone long acting formulations and methods of use” (Alkermes, Inc., priority 2004, dated 2011).
Read-outs that look alike come from different tables or passages of the source.

Tested on: patients with alcohol dependence
Conditions: oral vs placebo; for Risk difference as % reduction, relapse to heavy drinking / Risk difference (95% CI), relapse to heavy drinking: Hopkins meta-analysis; for Risk difference (95% CI), relapse to heavy drinking: nine studies, fixed effects model
[1] = Bouza et al, short term studies (≦12 weeks), listed as Oral Naltrexone
[2] = Cochrane Review, 12 weeks, listed as Oral Naltrexone

O=C1CC[C@@]2(O)[C@H]3Cc4ccc(O)c5c4[C@@]2(CCN3CC2CC2)[C@H]1O5 [oral naltrexone, naltrexone]
Decrease of odds of relapsing to heavy drinking relative to placebo (Bouza et al, short term studies (≦12 weeks)): 38%
Decrease of odds of relapsing to heavy drinking relative to placebo [1]: (38% reduction)
Odds ratio (95% CI), relapse to heavy drinking [1]: 0.62 (0.52, 0.75)
Decrease of relapse rate relative to placebo (Cochrane Review, 12 weeks): 36%
Decrease of relapse rate relative to placebo [2]: (36% reduction)
Relative risk (95% CI), relapse to heavy drinking [2]: 0.64 (0.51, 0.82)
Risk difference as % reduction, relapse to heavy drinking: 13%
Risk difference (95% CI), relapse to heavy drinking: 0.13
Risk difference (95% CI), relapse to heavy drinking (listed as Oral Naltrexone): 0.13 (0.08, 0.17)
Risk difference as % reduction, relapse to heavy drinking (listed as Oral Naltrexone): (13% reduction)
